# Source: patent publication US9247759B2, “Identification of human T2R receptors that respond to bitter compounds that elicit the bitter taste in compositions, and the use thereof in assays to identify compounds that inhibit (block) bitter taste in compositions and use thereof” (SENOMYX, INC., priority 2007, dated 2016)
# Read-outs that look alike come from different tables or passages of the source.
# Assays:
# hT2R63 = assay: hT2R panel inhibition, transient HEK293 G16g44, agonist Caffeine 1 mM or Andrographolide 100 μM; assay type: cell-based, human; conditions: compound at 25 μM; receptor activated to EC80 with the corresponding agonist
# Method in brief: (§1)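 Cells stably bearing the promiscuous G protein received one human T2R each by transient transfection and were assayed functionally. Ligands used at EC80; the test compound's inhibition equals the lowered activity.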
# hT2R51 = hT2R51 (Homo sapiens (Human), UniProt P59533); assay: hT2R panel inhibition, transient HEK293 G16g44, agonist Prop 2.5 μM; assay type: cell-based; conditions: HEK293, compound at 25 μM; receptor activated to EC80 with the corresponding agonist; read-out: screening result against bitter receptor 51
# Sequence of hT2R51 (P59533 whole entry): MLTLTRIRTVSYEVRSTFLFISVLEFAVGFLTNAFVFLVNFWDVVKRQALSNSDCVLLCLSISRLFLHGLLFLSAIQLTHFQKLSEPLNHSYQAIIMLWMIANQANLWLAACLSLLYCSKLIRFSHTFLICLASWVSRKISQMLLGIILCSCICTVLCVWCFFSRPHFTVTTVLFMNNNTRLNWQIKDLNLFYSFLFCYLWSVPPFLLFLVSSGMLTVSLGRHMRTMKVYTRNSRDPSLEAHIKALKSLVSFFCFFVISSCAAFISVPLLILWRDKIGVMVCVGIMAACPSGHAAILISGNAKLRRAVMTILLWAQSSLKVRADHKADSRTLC
# Method in brief: as §1
# hT2R14 [1] = target: T1, hT2R14 (Homo sapiens (Human), UniProt Q9NYV8); assay: hT2R panel inhibition, transient HEK293 G16g44, agonist Aristolochic Acid 2 μM; assay type: cell-based; conditions: HEK293, compound at 25 μM; receptor activated to EC80 with the corresponding agonist; read-out: screening result against bitter receptor 14
# T1 sequence (Q9NYV8 whole entry): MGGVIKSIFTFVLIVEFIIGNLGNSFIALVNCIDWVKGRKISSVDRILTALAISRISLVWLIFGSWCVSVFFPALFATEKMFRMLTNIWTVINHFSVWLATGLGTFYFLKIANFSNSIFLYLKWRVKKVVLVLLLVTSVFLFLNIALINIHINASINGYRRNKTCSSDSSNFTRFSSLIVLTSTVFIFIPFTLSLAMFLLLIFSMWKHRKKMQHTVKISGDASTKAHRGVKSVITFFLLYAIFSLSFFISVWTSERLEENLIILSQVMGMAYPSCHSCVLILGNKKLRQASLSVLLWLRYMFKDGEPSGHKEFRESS
# Method in brief: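 Agonist challenge was at EC80, with 0.5 mM andrographolide on hT2R8 and 2 μM aristolochic acid on hT2R14. Inhibition was measured in functional assays in HEK293 cells that stably carry the promiscuous G protein G16g44 and were transiently transfected with the individual receptor.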
# hT2R71 = hT2R71 (Homo sapiens (Human), UniProt P59536); assay: hT2R panel inhibition, transient HEK293 G16g44, agonist Picric Acid 10 μM; assay type: cell-based; conditions: HEK293, compound at 25 μM; receptor activated to EC80 with the corresponding agonist; read-out: screening result against bitter receptor 71
# Sequence of hT2R71 (P59536 whole entry): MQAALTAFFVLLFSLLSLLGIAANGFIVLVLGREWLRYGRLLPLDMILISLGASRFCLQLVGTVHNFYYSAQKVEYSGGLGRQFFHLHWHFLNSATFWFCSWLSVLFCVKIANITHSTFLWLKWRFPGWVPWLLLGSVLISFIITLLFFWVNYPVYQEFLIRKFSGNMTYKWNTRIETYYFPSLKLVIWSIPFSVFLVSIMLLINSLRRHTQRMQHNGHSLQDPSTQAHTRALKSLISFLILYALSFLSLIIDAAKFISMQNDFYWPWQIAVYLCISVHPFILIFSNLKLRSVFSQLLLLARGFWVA
# Method in brief: as §1
# hT2R64 = hT2R64 (Homo sapiens (Human), UniProt P59538); assay: hT2R panel inhibition, transient HEK293 G16g44, agonist Aristolochic Acid 1 μM; assay type: cell-based; conditions: HEK293, compound at 25 μM; receptor activated to EC80 with the corresponding agonist; read-out: screening result against bitter receptor 64
# Sequence of hT2R64 (P59538 whole entry): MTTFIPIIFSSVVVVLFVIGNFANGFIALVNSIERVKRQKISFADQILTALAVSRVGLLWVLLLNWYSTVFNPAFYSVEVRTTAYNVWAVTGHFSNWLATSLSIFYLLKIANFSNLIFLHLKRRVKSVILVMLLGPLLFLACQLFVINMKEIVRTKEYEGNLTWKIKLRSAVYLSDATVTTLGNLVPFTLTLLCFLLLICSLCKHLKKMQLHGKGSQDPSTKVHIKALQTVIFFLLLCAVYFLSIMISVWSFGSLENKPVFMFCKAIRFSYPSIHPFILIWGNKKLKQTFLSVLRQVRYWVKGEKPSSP
# Method in brief: as §1
# hT2R67 = assay: hT2R panel inhibition, transient HEK293 G16g44, agonist Andrographolide 5 μM; assay type: cell-based, human; conditions: compound at 25 μM; receptor activated to EC80 with the corresponding agonist
# Method in brief: as §1
# hT2R65 = assay: hT2R panel inhibition, transient HEK293 G16g44, agonist Oleuropein 1 mM; assay type: cell-based, human; conditions: compound at 25 μM; receptor activated to EC80 with the corresponding agonist
# Method in brief: as §1
# hT2R61 = hT2R61 (Homo sapiens (Human), UniProt P59537); assay: hT2R panel inhibition, transient HEK293 G16g44, agonist Aristolochic Acid 25 nM; assay type: cell-based; conditions: HEK293, compound at 25 μM; receptor activated to EC80 with the corresponding agonist; read-out: screening result against bitter receptor 61
# Sequence of hT2R61 (P59537 whole entry): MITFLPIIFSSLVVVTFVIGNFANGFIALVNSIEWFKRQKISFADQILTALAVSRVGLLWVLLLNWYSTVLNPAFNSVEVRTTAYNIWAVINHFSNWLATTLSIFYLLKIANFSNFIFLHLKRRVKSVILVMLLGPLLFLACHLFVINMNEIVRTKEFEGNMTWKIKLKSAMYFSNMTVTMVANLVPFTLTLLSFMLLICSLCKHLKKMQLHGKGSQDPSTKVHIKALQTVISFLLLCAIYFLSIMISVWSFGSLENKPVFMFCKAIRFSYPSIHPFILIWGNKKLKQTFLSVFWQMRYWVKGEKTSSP
# Method in brief: as §1
# hT2R3 = hT2R3 (Homo sapiens (Human), UniProt Q9NYW6); assay: hT2R panel inhibition, transient HEK293 G16g44, agonist Chloroquine pH6.5 50 μM; assay type: cell-based; conditions: HEK293, compound at 25 μM; receptor activated to EC80 with the corresponding agonist; read-out: screening result against bitter receptor 3
# Sequence of hT2R3 (Q9NYW6 whole entry): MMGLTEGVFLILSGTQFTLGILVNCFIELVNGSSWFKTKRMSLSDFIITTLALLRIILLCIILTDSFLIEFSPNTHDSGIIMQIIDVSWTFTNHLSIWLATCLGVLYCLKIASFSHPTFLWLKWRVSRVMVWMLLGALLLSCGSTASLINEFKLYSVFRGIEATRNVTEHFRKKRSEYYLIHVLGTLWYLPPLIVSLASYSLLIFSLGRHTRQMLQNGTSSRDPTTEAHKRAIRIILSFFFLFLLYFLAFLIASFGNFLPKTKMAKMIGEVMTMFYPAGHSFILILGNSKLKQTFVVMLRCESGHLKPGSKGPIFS
# Method in brief: as §1
# hT2R16 = hT2R16 (Homo sapiens (Human), UniProt Q9NYV7); assay: hT2R panel inhibition, transient HEK293 G16g44, agonist Salicin 1 mM; assay type: cell-based; conditions: HEK293, compound at 25 μM; receptor activated to EC80 with the corresponding agonist; read-out: screening result against bitter receptor 16
# Sequence of hT2R16 (Q9NYV7 whole entry): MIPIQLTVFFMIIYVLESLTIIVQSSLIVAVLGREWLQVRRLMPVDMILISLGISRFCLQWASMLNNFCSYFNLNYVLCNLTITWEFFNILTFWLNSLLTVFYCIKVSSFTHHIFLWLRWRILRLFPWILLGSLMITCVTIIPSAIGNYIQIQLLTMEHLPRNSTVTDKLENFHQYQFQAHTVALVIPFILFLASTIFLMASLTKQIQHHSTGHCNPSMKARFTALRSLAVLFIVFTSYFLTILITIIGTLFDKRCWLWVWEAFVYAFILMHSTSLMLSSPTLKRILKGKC
# Method in brief: as §1
# hT2R54 = assay: hT2R panel inhibition, transient HEK293 G16g44, agonist Ranitidine 5 mM; assay type: cell-based, human; conditions: compound at 25 μM; receptor activated to EC80 with the corresponding agonist
# Method in brief: as §1
# hT2R44 = assay: hT2R panel inhibition, transient HEK293 G16g44, agonist Denatonium 0.5 μM; assay type: cell-based, human; conditions: compound at 25 μM; receptor activated to EC80 with the corresponding agonist
# Method in brief: as §1
# hT2R9 = hT2R9 (Homo sapiens (Human), UniProt Q9NYW1); assay: hT2R panel inhibition, transient HEK293 G16g44, agonist Ofloxacin 1 mM; assay type: cell-based; conditions: HEK293, compound at 25 μM; receptor activated to EC80 with the corresponding agonist; read-out: screening result against bitter receptor 9
# Sequence of hT2R9 (Q9NYW1 whole entry): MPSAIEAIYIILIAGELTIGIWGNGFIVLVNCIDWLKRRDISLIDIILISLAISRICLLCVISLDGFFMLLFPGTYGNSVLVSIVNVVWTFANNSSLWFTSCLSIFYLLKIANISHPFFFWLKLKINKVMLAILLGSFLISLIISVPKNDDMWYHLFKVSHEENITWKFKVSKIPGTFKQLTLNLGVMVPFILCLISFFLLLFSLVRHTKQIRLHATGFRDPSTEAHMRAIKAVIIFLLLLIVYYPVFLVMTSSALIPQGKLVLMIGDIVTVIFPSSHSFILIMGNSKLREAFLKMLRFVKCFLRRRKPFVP
# Protocol: Specifically, in order to evaluate the inhibitory selectivity of the Compound C compound, this compound was tested against 22 human T2Rs which were deorphaned by Senomyx. These receptors and the bitter ligands that activate these human T2Rs are reported in earlier patent applications which are incorporated by reference herein. These 22 human T2Rs are hT2R1, 3, 4, 5, 7, 8, 9, 10, 13, 14, 16, 44, 51, 54, 55, 61, 63, 64, 65, 67, 71 and 75. The amino acid and nucleic acid sequences of all of these T2Rs may be found in these earlier patent applications. These human T2Rs were each individually transiently transfected into HEK293 cells that stably express the promiscuous G protein G16g44 and functional assays were effected using these receptors as disclosed in these same patent applications. […] The ligands were used at EC80 concentration levels. The list of bitter ligands utilized and the tested ligand concentrations are contained in Table 5 of this example.
# Relating to the foregoing, FIG. 5 contains experimental results wherein Compound C was tested with different agonist compounds. The inhibition activity is represented by the reduction of receptor activity in the presence of Compound C. […] These 13 hT2Rs are hT2R3, 7, 10, 14, 16, 44, 51, 55, 61, 63, 64, 65, and 71.
# hT2R14 [2] = target: T1, hT2R14; assay: hT2R14 antagonist high-throughput FLIPR assay, stable cell line with G16g44, agonist aristolochic acid; assay type: cell-based
# Method in brief: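 Compounds were co-applied with 3 μM aristolochic acid, a dose set to reach 70-80% of maximal hT2R14 activation. Read-out was FLIPR fluorescence in a stable HEK293 line co-expressing hT2R14 and G16g44.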
# hT2R55 = assay: hT2R panel inhibition, transient HEK293 G16g44, agonist Cinchonine 150 μM; assay type: cell-based, human; conditions: compound at 25 μM; receptor activated to EC80 with the corresponding agonist
# Method in brief: as §1
# hT2R5 = hT2R5 (Homo sapiens (Human), UniProt Q9NYW4); assay: hT2R panel inhibition, transient HEK293 G16g44, agonist Picoline 10 mM; assay type: cell-based; conditions: HEK293, compound at 25 μM; receptor activated to EC80 with the corresponding agonist; read-out: screening result against bitter receptor 5
# Sequence of hT2R5 (Q9NYW4 whole entry): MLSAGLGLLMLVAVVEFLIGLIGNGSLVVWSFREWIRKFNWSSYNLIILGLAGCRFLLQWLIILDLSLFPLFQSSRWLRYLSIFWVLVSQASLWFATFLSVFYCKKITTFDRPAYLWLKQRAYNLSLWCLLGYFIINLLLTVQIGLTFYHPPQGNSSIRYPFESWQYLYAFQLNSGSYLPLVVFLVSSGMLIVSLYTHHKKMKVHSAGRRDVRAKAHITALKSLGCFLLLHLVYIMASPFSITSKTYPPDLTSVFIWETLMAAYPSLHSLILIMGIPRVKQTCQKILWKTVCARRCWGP
# Method in brief: as §1
# hT2R10 = hT2R10 (Homo sapiens (Human), UniProt Q9NYW0); assay: hT2R panel inhibition, transient HEK293 G16g44, agonist Strychnine 50 μM; assay type: cell-based; conditions: HEK293, read-out: screening result against bitter receptor 10, compound at 25 μM; receptor activated to EC80 with the corresponding agonist
# Sequence of hT2R10 (Q9NYW0 whole entry): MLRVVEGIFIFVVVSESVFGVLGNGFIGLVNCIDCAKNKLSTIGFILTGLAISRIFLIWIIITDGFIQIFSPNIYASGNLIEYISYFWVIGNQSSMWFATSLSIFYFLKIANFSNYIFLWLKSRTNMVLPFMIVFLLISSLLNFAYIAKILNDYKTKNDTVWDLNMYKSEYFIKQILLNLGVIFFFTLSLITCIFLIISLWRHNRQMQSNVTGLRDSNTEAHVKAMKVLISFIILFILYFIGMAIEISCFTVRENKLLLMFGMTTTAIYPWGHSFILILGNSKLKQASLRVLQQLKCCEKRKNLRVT
# hT2R7 = hT2R7 (Homo sapiens (Human), UniProt Q9NYW3); assay: hT2R panel inhibition, transient HEK293 G16g44, agonist Chloroquine pH6.5 10 mM; assay type: cell-based; conditions: HEK293, compound at 25 μM; receptor activated to EC80 with the corresponding agonist; read-out: screening result against bitter receptor 7
# Sequence of hT2R7 (Q9NYW3 whole entry): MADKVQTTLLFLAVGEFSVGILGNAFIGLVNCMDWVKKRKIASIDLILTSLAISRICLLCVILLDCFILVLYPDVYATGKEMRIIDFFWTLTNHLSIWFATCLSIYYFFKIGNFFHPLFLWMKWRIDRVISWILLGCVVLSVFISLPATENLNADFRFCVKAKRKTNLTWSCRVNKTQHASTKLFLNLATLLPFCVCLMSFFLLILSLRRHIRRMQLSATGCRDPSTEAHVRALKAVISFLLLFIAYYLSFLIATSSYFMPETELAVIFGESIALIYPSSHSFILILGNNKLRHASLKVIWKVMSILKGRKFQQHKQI
# Method in brief: as §1
# hT2R75 = hT2R75 (Homo sapiens (Human), UniProt P59540); assay: hT2R panel inhibition, transient HEK293 G16g44, agonist Strychnine 1 μM; assay type: cell-based; conditions: HEK293, read-out: screening result against bitter receptor 75, compound at 25 μM; receptor activated to EC80 with the corresponding agonist
# Sequence of hT2R75 (P59540 whole entry): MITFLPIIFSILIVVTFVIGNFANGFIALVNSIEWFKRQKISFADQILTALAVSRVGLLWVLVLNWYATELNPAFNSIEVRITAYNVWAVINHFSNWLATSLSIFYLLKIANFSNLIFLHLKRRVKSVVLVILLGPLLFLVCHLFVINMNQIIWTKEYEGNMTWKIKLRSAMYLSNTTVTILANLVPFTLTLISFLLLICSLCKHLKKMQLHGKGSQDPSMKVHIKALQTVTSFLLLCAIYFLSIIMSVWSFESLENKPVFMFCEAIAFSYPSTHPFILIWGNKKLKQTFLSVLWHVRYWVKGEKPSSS
# hT2R4 = hT2R4 (Homo sapiens (Human), UniProt Q9NYW5); assay: hT2R panel inhibition, transient HEK293 G16g44, agonist Chloroquine pH6.5 5 mM; assay type: cell-based; conditions: HEK293, compound at 25 μM; receptor activated to EC80 with the corresponding agonist; class symbols; read-out: screening result against bitter receptor 4
# Sequence of hT2R4 (Q9NYW5 whole entry): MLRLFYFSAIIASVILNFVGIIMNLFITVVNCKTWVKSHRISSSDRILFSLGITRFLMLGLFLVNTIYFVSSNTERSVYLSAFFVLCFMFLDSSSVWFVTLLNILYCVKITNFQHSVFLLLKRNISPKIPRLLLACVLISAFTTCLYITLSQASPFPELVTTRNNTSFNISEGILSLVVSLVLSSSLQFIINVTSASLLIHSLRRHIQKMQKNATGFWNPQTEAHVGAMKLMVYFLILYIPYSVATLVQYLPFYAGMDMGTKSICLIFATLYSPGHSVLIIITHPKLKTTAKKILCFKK
# Method in brief: as §1
# [3] = read-out: IC50 on hT2R14 bitter receptor
SMILES,screening result against bitter receptor 63 (hT2R63),inhibition at 25 µM (hT2R51),inhibition at 25 µM (hT2R14 [1]),inhibition at 25 µM (hT2R71),inhibition at 25 µM (hT2R64),screening result against bitter receptor 67 (hT2R67),screening result against bitter receptor 65 (hT2R65),inhibition at 25 µM (hT2R61),inhibition at 25 µM (hT2R3),inhibition at 25 µM (hT2R16),screening result against bitter receptor 54 (hT2R54),screening result against bitter receptor 44 (hT2R44),inhibition at 25 µM (hT2R9),screening result against bitter receptor 55 (hT2R55),inhibition at 25 µM (hT2R5),inhibition at 25 µM (hT2R10),inhibition at 25 µM (hT2R7),further results
"COc1ccc(CN(Cc2cccc(OC)c2)S(=O)(=O)c2ccc(C(=O)O)cc2)cc1 [Example 5-34, 4-(N-(3-methoxybenzyl)-N-(4-methoxybenzyl)sulfamoyl)-benzoic acid]",++++ (80% or greater inhibition = ++++),20 to 40%,> 80%,60 to 80%,60 to 80%,+ (20% to 40% inhibition = +),++ (40% to 60% inhibition = ++),> 80%,40 to 60%,20 to 40%,+++ (60% to 80% inhibition = +++),++ (40% to 60% inhibition = ++),20 to 40%,++++ (80% or greater inhibition = ++++),40 to 60%,40 to 60%,20 to 40%,IC50 (hT2R14 [2]; [3]): 2.46 µM
"O=C(O)c1ccc(S(=O)(=O)N(Cc2ccccc2)Cc2cccc(C(=O)O)c2)cc1 [Example 5-76, 3-((N-benzyl-4-carboxyphenylsulfonamido)methyl)benzoic acid]",++ (40% to 60% inhibition = ++),–,–,20 to 40%,–,+ (20% to 40% inhibition = +),–,40 to 60%,20 to 40%,–,–,–,20 to 40%,–,20 to 40%,–,–,–
"COc1ccc(CN(Cc2ccccc2)S(=O)(=O)c2ccc(C(=O)O)cc2)c(OC)c1 [Example 5-13, 4-(N-benzyl-N-(2,4-dimethoxybenzyl)sulfamoyl)benzoic acid]",++++ (80% or greater inhibition = ++++),20 to 40%,> 80%,40 to 60%,60 to 80%,–,+ (20% to 40% inhibition = +),> 80%,40 to 60%,20 to 40%,+++ (60% to 80% inhibition = +++),+++ (60% to 80% inhibition = +++),20 to 40%,++++ (80% or greater inhibition = ++++),20 to 40%,20 to 40%,20 to 40%,–
"COc1cc(OC)c(CN(Cc2ccccc2)S(=O)(=O)c2ccc(C(=O)O)cc2)c(OC)c1 [Example 5-15, 4-(N-benzyl-N-(2,4,6-trimethoxybenzyl)sulfamoyl)benzoic acid]",–,–,> 80%,60 to 80%,60 to 80%,–,+ (20% to 40% inhibition = +),> 80%,40 to 60%,20 to 40%,–,–,20 to 40%,–,20 to 40%,40 to 60%,20 to 40%,IC50 (hT2R14 [2]; [3]): 10.8 µM
"COc1ccc(CN(Cc2cc(OC)cc(OC)c2)S(=O)(=O)c2ccc(C(=O)O)cc2)cc1 [Example 5-67, 4-(N-(3,5-dimethoxybenzyl)-N-(4-methoxybenzyl)sulfamoyl)benzoic acid]",++++ (80% or greater inhibition = ++++),–,60 to 80%,40 to 60%,60 to 80%,+ (20% to 40% inhibition = +),+ (20% to 40% inhibition = +),40 to 60%,40 to 60%,20 to 40%,++ (40% to 60% inhibition = ++),++ (40% to 60% inhibition = ++),20 to 40%,++++ (80% or greater inhibition = ++++),20 to 40%,40 to 60%,–,"IC50 (hT2R14 [2]; Table C, read-out: hT2R14 IC50): 12.1 µM"
"COc1ccc(CN(Cc2ccccc2F)S(=O)(=O)c2ccc(C(=O)O)cc2)cc1 [Example 5-31, 4-(N-(2-fluorobenzyl)-N-(4-methoxybenzyl)sulfamoyl)benzoic acid]",–,–,–,–,–,–,–,–,20 to 40%,–,–,+ (20% to 40% inhibition = +),20 to 40%,–,–,–,–,–
"O=C(O)c1ccc(S(=O)(=O)N(Cc2ccccc2)Cc2ccccc2F)cc1 [Example 5-72, 4-(N-benzyl-N-(2-fluorobenzyl)sulfamoyl)benzoic acid]",++++ (80% or greater inhibition = ++++),20 to 40%,> 80%,20 to 40%,20 to 40%,+ (20% to 40% inhibition = +),+ (20% to 40% inhibition = +),60 to 80%,20 to 40%,20 to 40%,+ (20% to 40% inhibition = +),+ (20% to 40% inhibition = +),20 to 40%,++ (40% to 60% inhibition = ++),40 to 60%,20 to 40%,–,inhibition at 25 µM (hT2R75): 40 to 60%
"COc1ccc(CN(Cc2ccc(C(=O)O)cc2)S(=O)(=O)c2ccccc2)cc1 [Example 5-102, 4-((N-(4-methoxybenzyl)phenylsulfonamido)methyl) benzoic acid]",+ (20% to 40% inhibition = +),20 to 40%,> 80%,60 to 80%,60 to 80%,+ (20% to 40% inhibition = +),++ (40% to 60% inhibition = ++),> 80%,40 to 60%,20 to 40%,+ (20% to 40% inhibition = +),+++ (60% to 80% inhibition = +++),–,++++ (80% or greater inhibition = ++++),20 to 40%,20 to 40%,40 to 60%,"inhibition at 25 µM (hT2R75): 20 to 40%; IC50 (hT2R14 [2]; Table C, read-out: hT2R14 IC50): 2.22 µM; inhibition at 25 µM (hT2R4): 40 to 60%"
